Results: publication PMC6009888, “Design, synthesis, and pharmacological evaluation of 2-amino-5-nitrothiazole derived semicarbazones as dual inhibitors of monoamine oxidase and cholinesterase: effect of the size of aryl binding site” (Journal of Enzyme Inhibition and Medicinal Chemistry, 2017)
Values joined by “and” are separate entries in the source; they are usually repeats but may differ in a detail not shown here. Equal values may be shown once. Read-outs that look alike come from different tables or passages of the source.

Assays:
[1] = target: T1, equine serum BuChE (Equus caballus, UniProt P81908); experiment: In vitro BuChE inhibition assay (Ellman's method, equine serum BuChE); assay type: biochemical
T1 construct: equine serum BuChE was used as enzyme; purchased Sigma-Aldrich; host or cells: equine serum
T1 sequence (P81908 whole entry): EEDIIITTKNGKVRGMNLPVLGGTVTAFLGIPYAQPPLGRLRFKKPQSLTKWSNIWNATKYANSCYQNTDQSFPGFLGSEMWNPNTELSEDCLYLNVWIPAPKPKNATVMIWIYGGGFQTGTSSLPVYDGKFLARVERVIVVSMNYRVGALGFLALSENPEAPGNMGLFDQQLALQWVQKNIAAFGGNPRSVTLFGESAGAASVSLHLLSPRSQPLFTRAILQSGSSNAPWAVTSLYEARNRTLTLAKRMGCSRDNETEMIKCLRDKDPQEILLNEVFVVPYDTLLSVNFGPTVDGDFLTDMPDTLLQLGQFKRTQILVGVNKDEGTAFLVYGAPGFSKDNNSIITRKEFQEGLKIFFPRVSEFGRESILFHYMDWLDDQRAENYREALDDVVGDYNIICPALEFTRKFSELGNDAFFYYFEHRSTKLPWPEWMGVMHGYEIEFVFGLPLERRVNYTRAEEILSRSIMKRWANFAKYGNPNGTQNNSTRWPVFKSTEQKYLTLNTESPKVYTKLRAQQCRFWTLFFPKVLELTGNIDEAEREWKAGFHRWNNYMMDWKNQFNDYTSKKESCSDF
Protocol: About 30 µl of enzyme sample (AChE) was added to 60 µl of 20 mM sodium phosphate buffer (pH 7.4) and were incubated in the presence of 30 µl of 10 mM DTNB solution with different concentrations of the test compounds. The enzyme reaction was initiated by the addition of 30 µl of 0.8 mM ACTI. The mixtures were incubated for 15 min at 25 °C. […] Control experiments were carried out without inhibitor, and blanks were run without AChE enzyme. All the assays were performed in triplicate. IC50 values were determined using the GraphPad Prism 5.0 (San Diego, CA) and the results were expressed as mean ± SEM.
The BuChE activity was assayed as per the procedure followed for AChE activity except that equine serum BuChE was used as enzyme and butyrylthiocholine iodide (BuTI) was used as substrate.
(§1) 0, 15, 30 and 60 min at 25 °C in sodium phosphate buffer (20 mM, pH 7.4) and DTNB solution (10 mM). […] The reaction was further incubated at 25 °C for a further 15 min and the residual enzyme activities were measured and the bar graphs were constructed. All measurements were carried out in triplicate and are expressed as mean ± SEM.

[2] = physchem
[3] = target: T2, MAO-A (Rattus norvegicus, UniProt P21396); experiment: In vitro MAO-A inhibition assay (rat brain mitochondria, serotonin substrate); assay type: biochemical; conditions: for IC50: rat brain mitochondria, serotonin substrate, mean ± SEM, triplicate
T2 construct: employing crude rat brain mitochondrial suspension; from tissue; host or cells: brain mitochondria of adult Wistar rats
T2 sequence (P21396 1-526): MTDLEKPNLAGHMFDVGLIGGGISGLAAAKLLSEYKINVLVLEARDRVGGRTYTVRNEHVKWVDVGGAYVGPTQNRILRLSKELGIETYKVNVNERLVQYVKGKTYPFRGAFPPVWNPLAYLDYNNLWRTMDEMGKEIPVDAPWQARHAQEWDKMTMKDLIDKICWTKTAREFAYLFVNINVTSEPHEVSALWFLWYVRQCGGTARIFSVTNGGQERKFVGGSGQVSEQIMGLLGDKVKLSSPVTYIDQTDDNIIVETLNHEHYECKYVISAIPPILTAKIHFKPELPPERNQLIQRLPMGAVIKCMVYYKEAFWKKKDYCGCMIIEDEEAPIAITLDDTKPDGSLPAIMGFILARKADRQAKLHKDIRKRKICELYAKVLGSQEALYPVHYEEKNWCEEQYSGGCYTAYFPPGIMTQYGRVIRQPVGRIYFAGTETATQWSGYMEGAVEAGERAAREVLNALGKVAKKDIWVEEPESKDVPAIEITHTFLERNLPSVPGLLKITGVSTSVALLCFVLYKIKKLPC
Protocol: Rat brain mitochondria were used as a source of MAO isoforms. All operations were carried out at 4 °C[50]. Male and female adult Wistar rats weighing 200–220 g were decapitated. All brains were rapidly removed and homogenised with a Potter–Elvehjem homogeniser in cold 0.32 M sucrose and 50 mM Tris-HCl, pH 8.2 (10:1, v/w). The homogenate was centrifuged twice at 1000 g for 5 min at 4 °C. The resulting supernatant was centrifuged at 20,000 g for 20 min. The mitochondrial pellet obtained was suspended in 100 mM sodium phosphate buffer, pH 7.4 (4:1, v/w), fractionated in plastic vials to 500 µl samples and stored at −80 °C. Before use, mitochondria were diluted with 100 mM sodium phosphate buffer to give a working solution of 0.80 mg of protein per millilitre.
The experiments were carried out under all the suitable laboratory conditions. […] An aliquot was made to contain mixture of 55 µl mitochondrial suspension (0.80 mg of protein/ml), 90 µl 50 mM Tris-HCl buffer, pH 8.2 and 30 µl solubilising solution (control or inhibitor solution at five different concentrations). The reaction was initiated by adding 25 µl of serotonin (4 mM, substrate for MAO-A) and 25 µl benzylamine (0.1 M, substrate for MAO-B) for the determination of MAO-A and MAO-B activity, respectively. The mixture was incubated at 37 °C for 30 min and the reaction was stopped by the addition of 50 µl of 1 N HCl. The absorbance associated with the production of 5-hydroxyindolacetic acid was measured at 280 nm for the estimation of MAO-A while for MAO-B estimation, the absorbance was measured at 250 nm due to the formation of benzaldehyde. All the assays were performed in triplicate. Control experiments were carried out without inhibitor and blanks were run without mitochondrial suspension.
Data are expressed as mean ± standard error mean (SEM) of experiments performed in triplicate.
as §1, with “37” for “25”, “Tris-HCl” for “sodium phosphate”, “(50” for “(20”, “8.2).” for “7.4) and DTNB solution (10 mM).”, “reactions were” for “reaction was”

[4] = In vitro DPPH radical scavenging assay; conditions: test sample 100 µg/ml, 100 µM methanolic DPPH, 30 min, 517 nm
Protocol: Antioxidant activity of the synthesised compounds (10 mg/ml) was evaluated using the radical scavenging capability against the stable free radical, 2,2′-diphenyl-1-picryl hydrazyl (DPPH·). The DPPH· scavenging capability was determined using UV based spectrophotometric assay. About 200 µl of the test sample solution (100 µg/ml) was added to 4 ml of 100 µM methanolic DPPH. […] Ascorbic acid (100 µg/ml) was used as reference. The percentage inhibition of DPPH activity was estimated using the formula: Percent (%) inhibition of DPPH activity = Acontrol-Asample/Acontrol×100 where Acontrol is the absorbance of DPPH· in methanol without an antioxidant and Asample is the absorbance of DPPH· in the presence of an antioxidant.

[5] = equine serum BuChE, BuTI substrate, mean ± SEM, read-out: BuChE In vitro IC50 (µM) ± SEM
[6] = read-out: MAO-A In vitro IC50 (µM) ± SEM

Row | Structure (SMILES) | IC50 [1, 5] [µM] | BuChE: fold reduction in activity compared to compound 4 ([1]; ratio of IC50 values) [fold] | BuChE: fold reduction in activity compared to compound 5 ([1]; ratio of IC50 values) [fold] | logP ([2]; octanol/water) | Mode of MAO-A inhibition ([3]; Lineweaver–Burk plots, serotonin) | Ki ([3]; kinetic study, non-competitive model, GraphPad Prism, read-out: Ki (dissociation constant) against MAO-A) [µM] | IC50 [3, 6] | Reversibility of MAO-A inhibition ([3]; time-dependent inhibition, pre-incubation 0, 15, 30, 60 min) | % inhibition of DPPH activity [4] [%] | IC50 [1] [µM] | BuChE: fold less active relative to compound 17 ([1]; diaryl analogues) [fold] | logP [2] | IC50 ([3]; MAO-A In vitro IC50 (µM) ± SEM)
1 | O=C(NN=C1C(=O)Nc2ccc(Br)cc21)Nc1ncc([N+](=O)[O-])s1 [Compound 21, 1-(5-Bromo-2-oxoindolin-3-ylidene)-4–(5-nitrothiazol-2-yl)semicarbazide] | 5.37 ± 0.278 | ~10.75 | ~9.7 | 1.9 | non-competitively | 17.3 ± 1.79 | < 100 µM and 57.2 µM | reversible | 65.65 | – | – | – | –
2 | O=C(NN=C(c1ccc(Cl)cc1)c1ccc(Cl)cc1)Nc1ncc([N+](=O)[O-])s1 [Compound 19, 1-(Bis(4-chlorophenyl)methylene)-4-(5-nitrothiazol-2-yl)semicarbazide] | – | – | – | – | – | – | – | – | 24.03 | 5.72 ± 0.874 | ~238 | 3.9 | > 100 µM and 50700 µM
3 | CC(=NNC(=O)Nc1ncc([N+](=O)[O-])s1)c1ccc(Br)cc1 [Compound 4, 1-(1-(4-Bromophenyl)ethylidene)-4-(5-nitrothiazol-2-yl)semicarbazide] | 0.499 ± 0.003 | – | – | 2.2 | – | – | < 100 µM and 70.2 µM | – | 58.68 | – | – | – | –
4 | CC(=NNC(=O)Nc1ncc([N+](=O)[O-])s1)c1ccc(Cl)cc1 [Compound 5, 1-(1-(4-Chlorophenyl)ethylidene)-4-(5-nitrothiazol-2-yl)semicarbazide] | 0.553 ± 0.038 | – | – | 2.1 | – | – | 4761 ± 10.8 µM | – | 51.83 | – | – | – | –
